Results on 32 compounds are retold here after the supplement of paper PMC3974653.

Each structure is given as a SMILES string. Structures can show the parent of a compound that is named as a salt.

The experiment relates to MTT (mouse pheochromocytoma). As to the kind of experiment: IC50 of cell viability (ATP content). To be noted: (24 or 48 h). In a few lines:
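MTT mouse pheochromocytoma cells (5 µl of 200,000 cells/ml per well, white 1536-well plates, DMEM with 5% FBS and 1% horse serum) were cultured overnight at 37°C, 5% CO2. They then received 23 nl library compound in DMSO by pintool at 8 concentrations (final 0.5 nM to 46 µM) for 24 or 48 hrs. CellTiter-Glo ATP luminescence was read after 15 minutes. Signals were normalised to positive-control (100% inhibition) and DMSO (0%) wells, and IC50 came from a four-parameter logistic fit.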
On to `CN[C@@H](C)CC\C=C(/C)C.CN[C@@H](C)CC\C=C(/C)C.O[C@@H]([C@@H](O)[C@@H](O)C(O)=O)[C@H](O)C(O)=O` [Isometheptene mucate], for which the “IC50 of cell viability” value was more than 46 µM.

Take `NNC(=O)c1ccncc1` [Isoniazid]: the “IC50 of cell viability” value was more than 46 µM.

Regarding `CC(C)[N+](C)(CCC(C(N)=O)(c1ccccc1)c1ccccc1)C(C)C` [Isopropamide iodide], the “IC50 of cell viability” value was more than 46 µM.

As for `C[C@H](N[C@@H](C)COc1ccccc1)[C@H](O)c1ccc(O)cc1` [Isoxsuprine hydrochloride], the “IC50 of cell viability” value was more than 46 µM.

Consider `COC(=O)\C1=C(/C)N\C(=C(/[C@H]1C2=CC=CC3=NON=C23)C(=O)OC(C)C)C` [Isradipine], for which the “IC50 of cell viability” value was more than 46 µM.

Turning to `CO[C@H]1[C@@H](O[C@@H]2O[C@@H](C)[C@@H](O[C@H]3C[C@](C)(O)[C@H](OC(=O)CC(C)C)[C@H](C)O3)[C@@H](N(C)C)[C@H]2O)[C@H](CC=O)C[C@@H](C)[C@@H](O)/C=C\C=C/C[C@@H](C)OC(=O)C[C@H]1OC(C)=O` [Josamycin], the “IC50 of cell viability” value was more than 46 µM.

`C=C(C)[C@H]1CN[C@H](C(=O)O)[C@H]1CC(=O)O` [KAINIC ACID]: the “IC50 of cell viability” value is more than 46 µM.

`NCC1O[C@@H](OC2C(N)C[C@H](N)[C@@H](O[C@H]3OC(CO)C(O)C(N)C3O)C2O)C(N)C(O)C1O` (some centres not stated) [KANAMYCIN B]: the “IC50 of cell viability” value is more than 46 µM.

As to `O=C(c1ccc(F)cc1)C1CCN(CCn2c(=O)[nH]c3ccccc3c2=O)CC1` [KETANSERIN], the “IC50 of cell viability” value was more than 46 µM.

`CN1CCC(=C2c3ccccc3CC(=O)c3sccc32)CC1` [KETOTIFEN]: the “IC50 of cell viability” value is more than 46 µM.

Regarding `OC\C1=C\C(=O)\C(=C/O1)O` [KOJIC ACID], the “IC50 of cell viability” value was more than 46 µM.

For `NC[C@@H]1O[C@@H](O[C@H]2[C@@H](O)[C@H](O[C@@H]3O[C@@H](CO)[C@H](O)[C@H](N)[C@@H]3O)[C@@H](N)C[C@H]2N)[C@H](O)[C@H](O)[C@@H]1O` [Kanamycin A sulfate], the “IC50 of cell viability” value was more than 46 µM.

`CC(=O)N1CCN(c2ccc(OC[C@@H]3CO[C@@](Cn4ccnc4)(c4ccc(Cl)cc4Cl)O3)cc2)CC1` [Ketoconazole]: the “IC50 of cell viability” value is more than 46 µM.

For the compound `C[C@@H](C(=O)O)c1cccc(C(=O)c2ccccc2)c1` [Ketoprofen], the “IC50 of cell viability” value was more than 46 µM.

Take `O=C(c1ccccc1)c1ccc2n1CCC2C(=O)O` (configuration not stated) [Ketorolac tris salt]: the “IC50 of cell viability” value was more than 46 µM.

For `NC(CO)(CO)CO.O=C(c1ccccc1)c1ccc2n1CC[C@H]2C(=O)O` [Ketorolac tromethamine], the “IC50 of cell viability” value was more than 46 µM.

Take `COC1=C2O\C(=C/C(=O)C2=C(OC)C3=C1OC=C3)C` [Khellin]: the “IC50 of cell viability” value was more than 46 µM.

With `O=C1C=C(CO)OCC1=O` [Kojic acid], the “IC50 of cell viability” value was more than 46 µM.

`N[C@@H](Cc1ccc(O)c(O)c1)C(=O)O` [L-3,4-DIHYDROXYPHENYL-ALANINE]: the “IC50 of cell viability” value was more than 46 µM.

In the case of `O=C(CO)[C@@H](O)[C@H](O)[C@@H](O)CO` [L-(-)-Sorbose], the “IC50 of cell viability” value is more than 46 µM.

As to `N=C(N)NCCC[C@H](N)C(=O)O` [L-Arginine], the “IC50 of cell viability” value was more than 46 µM.

Regarding `O=C1O[C@H]([C@@H](O)CO)C(O)=C1O` [L-Ascorbic acid], the “IC50 of cell viability” value was more than 46 µM.

Turning to `CCOC(=O)[C@@H](N)CS` [L-CYSTEINE ETHYLESTER HYDROCHLORIDE], the “IC50 of cell viability” value is more than 46 µM.

`N[C@@H](CCC(=O)O)C(=O)O` [L-GLUTAMIC ACID]: the “IC50 of cell viability” value is more than 46 µM.

`Cl.N[C@@H](Cc1c[nH]cn1)C(=O)O` [L-Histidine hydrochloride]: the “IC50 of cell viability” value is more than 46 µM.

As for `CNC(=N)NCCC[C@H](N)C(=O)O` [L-NMMA], the “IC50 of cell viability” value was more than 46 µM.

Turning to `OCC1O[C@H](OC2C(CO)O[C@@](O)(CO)C2O)C(O)C(O)C1O` (some centres not stated) [LACTULOSE], the “IC50 of cell viability” value was more than 46 µM.

In the case of `O=C(CS(=O)Cc1ccco1)NC/C=C/COc1cc(CN2CCCCC2)ccn1` (configuration not stated) [LAFUTIDINE], the “IC50 of cell viability” value was more than 46 µM.

Regarding `CC(=O)O[C@H]1C[C@H](O[C@H]2[C@@H](O)CC(O[C@H]3[C@@H](O)C[C@H](O[C@H]4CC[C@@]5(C)[C@H](CC[C@@H]6[C@@H]5CC[C@]5(C)[C@@H](C7=CC(=O)OC7)CC[C@]65O)C4)O[C@@H]3C)O[C@@H]2C)O[C@H](C)[C@H]1O[C@@H]1O[C@H](CO)[C@@H](O)[C@H](O)[C@H]1O` (some centres not stated) [LANATOSIDE A], the “IC50 of cell viability” value is more than 46 µM.

Take `CC1O[C@@H](CC(O)[C@H]1O[C@H]2CC(O)[C@@H](O[C@H]3CC(OC(C)=O)[C@H](O[C@H]4OC(CO)C(O)C(O)C4O)[C@@H](C)O3)C(C)O2)OC5CC[C@]6(C)C(CCC7C6CC(O)[C@@]8(C)C(CC[C@@]78O)\C9=C\C(=O)OC9)C5` (some centres not stated) [LANATOSIDE C]: the “IC50 of cell viability” value is more than 46 µM.

`N#C/C(=C1/SCC(c2ccccc2Cl)S1)n1ccnc1` (configuration not stated) [LANOCONAZOLE]: the “IC50 of cell viability” value is more than 46 µM.

Take `C[C@H](CN1CCCC1)C(=O)c1ccc(C(F)(F)F)cc1` [LANPERISONE HYDROCHLORIDE]: the “IC50 of cell viability” value is more than 46 µM.
